Results: ChEMBL document CHEMBL3414511, “Synthesis of a novel class of substituted benzothiophene or benzofuran derivatives as BMP-2 up-regulators and evaluation of the BMP-2-up-regulating effects in vitro and the effects on glucocorticoid-induced osteoporosis in rats” (Eur J Med Chem, 2015)
Activity calls are given as the source filed them. The calls are words filed in the database; no cut-off is given here.

How the values were obtained:
[1] = test system: Rattus norvegicus; experiment: Toxicity in glucocorticoid-induced Wistar rat osteoporosis model assessed as alanine transaminase level at 0.05 ug/kg/day, po administered six times a week for 3 months (reference value: 43.73 +/- 36.21 U/L); type: organism-based; details: in vivo, 5e-05 mg/kg
[2] = test system: Rattus norvegicus; experiment: Antiosteoporotic activity in glucocorticoid-induced Wistar rat osteoporosis model assessed as increase in trabecula number at 0.05 ug/kg/day, po administered six times a week for 3 months by toluidine blue staining-based light microscopic analysis relative to dexamethasone; type: functional, organism-based
[3] = test system: Rattus norvegicus; experiment: Antiosteoporotic activity in glucocorticoid-induced Wistar rat osteoporosis model assessed as trabecular bone volume at 0.05 ug/kg/day, po administered six times a week for 3 months by fluorescence assay (reference value: 33.09 +/- 5.15%); type: functional, Trabecula
[4] = test system: Rattus norvegicus; experiment: Antiosteoporotic activity in glucocorticoid-induced Wistar rat osteoporosis model assessed as mineral apposition rate at 0.05 ug/kg/day, po administered six times a week for 3 months by fluorescence assay (reference value: 1.06 +/- 0.27 micrometer/day); type: functional
[5] = test system: Rattus norvegicus; experiment: Antiosteoporotic activity in glucocorticoid-induced Wistar rat osteoporosis model assessed as trabecula formation surface at 0.05 ug/kg/day, po administered six times a week for 3 months by fluorescence assay (reference value: 7.82 +/- 2.46%); type: functional
[6] = test system: Rattus norvegicus; experiment: Antiosteoporotic activity in glucocorticoid-induced Wistar rat osteoporosis model assessed as increase in trabecula area at 0.05 ug/kg/day, po administered six times a week for 3 months by toluidine blue staining-based light microscopic analysis relative to dexamethasone; type: functional, organism-based
[7] = test system: Rattus norvegicus; experiment: Antiosteoporotic activity in glucocorticoid-induced Wistar rat osteoporosis model assessed as increase in trabecula thickness at 0.05 ug/kg/day, po administered six times a week for 3 months by toluidine blue staining-based light microscopic analysis relative to dexamethasone; type: functional, organism-based
[8] = test system: Rattus norvegicus; experiment: Toxicity in glucocorticoid-induced Wistar rat osteoporosis model assessed as aspartate transaminase level at 0.05 ug/kg/day, po administered six times a week for 3 months (reference value: 177.55 +/- 116.98 U/L); type: organism-based; details: in vivo, 5e-05 mg/kg
[9] = test system: Rattus norvegicus; experiment: Antiosteoporotic activity in glucocorticoid-induced Wistar rat osteoporosis model assessed as trabecula resorption surface at 0.05 ug/kg/day, po administered six times a week for 3 months by fluorescence assay (reference value: 7.22 +/- 2.04%); type: functional
[10] = test system: Rattus norvegicus; experiment: Antiosteoporotic activity in glucocorticoid-induced Wistar rat osteoporosis model assessed as increase in trabecula connectivity at 0.05 ug/kg/day, po administered six times a week for 3 months by toluidine blue staining-based light microscopic analysis relative to dexamethasone; type: functional, organism-based
[11] = test system: Rattus norvegicus; experiment: Toxicity in glucocorticoid-induced Wistar rat osteoporosis model assessed as neutrophilic granulocytes level at 0.05 ug/kg/day, po administered six times a week for 3 months (reference value: 31.95 +/- 8.33%); type: organism-based; details: in vivo, 5e-05 mg/kg
[12] = test system: Rattus norvegicus; experiment: Toxicity in glucocorticoid-induced Wistar rat osteoporosis model assessed as lymph level at 0.05 ug/kg/day, po administered six times a week for 3 months (reference value: 50.35 +/- 12.96%); type: organism-based; details: in vivo, 5e-05 mg/kg
[13] = test system: Rattus norvegicus; experiment: Toxicity in glucocorticoid-induced Wistar rat osteoporosis model assessed as white blood cells at 0.05 ug/kg/day, po administered six times a week for 3 months (reference value: 6.28 +/- 2.78 x 10^9/L); type: organism-based; details: in vivo, 5e-05 mg/kg
[14] = test system: Rattus norvegicus; experiment: Toxicity in glucocorticoid-induced Wistar rat osteoporosis model assessed as triglycerides level at 0.05 ug/kg/day, po administered six times a week for 3 months (reference value: 1.13 +/- 0.69 mmol/L); type: organism-based; details: in vivo, 5e-05 mg/kg
[15] = test system: Rattus norvegicus; experiment: Toxicity in glucocorticoid-induced Wistar rat osteoporosis model assessed as aspartate transaminase level at 5 mg/kg/day, po administered six times a week for 3 months (reference value: 177.55 +/- 116.98 U/L); type: organism-based; set-up: route oral; details: in vivo
[16] = test system: Rattus norvegicus; experiment: Toxicity in glucocorticoid-induced Wistar rat osteoporosis model assessed as neutrophilic granulocytes level at 5 mg/kg/day, po administered six times a week for 3 months (reference value: 31.95 +/- 8.33%); type: organism-based; set-up: route oral; details: in vivo
[17] = test system: Rattus norvegicus; experiment: Antiosteoporotic activity in glucocorticoid-induced Wistar rat osteoporosis model assessed as trabecula formation surface at 5 mg/kg/day, po administered six times a week for 3 months by fluorescence assay (reference value: 7.82 +/- 2.46%); type: functional
[18] = test system: Rattus norvegicus; experiment: Antiosteoporotic activity in glucocorticoid-induced Wistar rat osteoporosis model assessed as increase in trabecula number at 5 mg/kg/day, po administered six times a week for 3 months by toluidine blue staining-based light microscopic analysis relative to dexamethasone; type: functional, organism-based
[19] = test system: Rattus norvegicus; experiment: Antiosteoporotic activity in glucocorticoid-induced Wistar rat osteoporosis model assessed as increase in trabecula area at 5 mg/kg/day, po administered six times a week for 3 months by toluidine blue staining-based light microscopic analysis relative to dexamethasone; type: functional, organism-based
[20] = test system: Rattus norvegicus; experiment: Toxicity in glucocorticoid-induced Wistar rat osteoporosis model assessed as alanine transaminase level at 5 mg/kg/day, po administered six times a week for 3 months (reference value: 43.73 +/- 36.21 U/L); type: organism-based; set-up: route oral; details: in vivo
[21] = test system: Rattus norvegicus; experiment: Antiosteoporotic activity in glucocorticoid-induced Wistar rat osteoporosis model assessed as increase in trabecula connectivity at 5 mg/kg/day, po administered six times a week for 3 months by toluidine blue staining-based light microscopic analysis relative to dexamethasone; type: functional, organism-based
[22] = test system: Rattus norvegicus; experiment: Antiosteoporotic activity in glucocorticoid-induced Wistar rat osteoporosis model assessed as increase in trabecula thickness at 5 mg/kg/day, po administered six times a week for 3 months by toluidine blue staining-based light microscopic analysis relative to dexamethasone; type: functional, organism-based
[23] = test system: Rattus norvegicus; experiment: Toxicity in glucocorticoid-induced Wistar rat osteoporosis model assessed as lymph level at 5 mg/kg/day, po administered six times a week for 3 months (reference value: 50.35 +/- 12.96%); type: organism-based; set-up: route oral; details: in vivo
[24] = test system: Rattus norvegicus; experiment: Antiosteoporotic activity in glucocorticoid-induced Wistar rat osteoporosis model assessed as mineral apposition rate at 5 mg/kg/day, po administered six times a week for 3 months by fluorescence assay (reference value: 1.06 +/- 0.27 micrometer/day); type: functional
[25] = test system: Rattus norvegicus; experiment: Toxicity in glucocorticoid-induced Wistar rat osteoporosis model assessed as triglycerides level at 5 mg/kg/day, po administered six times a week for 3 months (reference value: 1.13 +/- 0.69 mmol/L); type: organism-based; set-up: route oral; details: in vivo
[26] = test system: Rattus norvegicus; experiment: Toxicity in glucocorticoid-induced Wistar rat osteoporosis model assessed as white blood cells at 5 mg/kg/day, po administered six times a week for 3 months (reference value: 6.28 +/- 2.78 x 10^9/L); type: organism-based; set-up: route oral; details: in vivo
[27] = test system: Rattus norvegicus; experiment: Antiosteoporotic activity in glucocorticoid-induced Wistar rat osteoporosis model assessed as trabecular bone volume at 5 mg/kg/day, po administered six times a week for 3 months by fluorescence assay (reference value: 33.09 +/- 5.15%); type: functional, Trabecula
[28] = test system: Rattus norvegicus; experiment: Antiosteoporotic activity in glucocorticoid-induced Wistar rat osteoporosis model assessed as trabecula resorption surface at 5 mg/kg/day, po administered six times a week for 3 months by fluorescence assay (reference value: 7.22 +/- 2.04%); type: functional

## C=C1/C(=C\C=C2/CCC[C@]3(C)[C@@H]([C@H](C)CCCC(C)C)CC[C@@H]23)C[C@@H](O)C[C@@H]1O [ALFACALCIDOL]
[1]
  Activity: 30.64 U/L
[2]
  Activity: Active
[3]
  Activity: 28.54%
[4]
  Activity: 1.05 micrometer/day
[5]
  Activity: 6.72%
[6]
  Activity: Active
[7]
  Activity: Active
[8]
  Activity: 109.73 U/L
[9]
  Activity: 8.15%
[10]
  Activity: Active
[11]
  Activity: 48.13%
[12]
  Activity: 34.83%
[13]
  Activity: 3.42 ×10⁹ /L
[14]
  Activity: 0.51 mmol/L

## O=C(c1ccc(OCCN2CCCCC2)cc1)c1c(-c2ccc(O)cc2)sc2cc(O)ccc12 [RALOXIFENE]
[15]
  Activity: 115.27 U/L
[16]
  Activity: 40.58%
[17]
  Activity: 7.04%
[18]
  Activity: Active
[19]
  Activity: Active
[20]
  Activity: 35.09 U/L
[21]
  Activity: Active
[22]
  Activity: Active
[23]
  Activity: 39.05%
[24]
  Activity: 1.16 micrometer/day
[25]
  Activity: 0.76 mmol/L
[26]
  Activity: 2.94 ×10⁹ /L
[27]
  Activity: 34.35%
[28]
  Activity: 7.82%
